The numbers were not newly measured in patent publication US20070141100A1, “Drug-eluting biodegradable stent” (priority 2003, published 2007), which cites them from elsewhere.

Data set [1] concerns tissue culture.
The conditions of data set [2]: glutaraldehyde used to crosslink materials.
For data set [3], the system named is renal transplant recipients. The conditions noted are these: everolimus trough serum concentrations above 7.8 ng/ml.
Data set [4] concerns neointimal proliferation. The conditions noted are these: animal studies, compared with a control bare metal stent.
Data set [5] concerns 3T3 fibroblasts. The conditions noted are these: in vitro.
In data set [6] the test system is Chinese hamster ovary (CHO-K1) cells. The conditions noted are these: in vitro.
The subject of data set [7] is mice. The conditions noted are these: i.v.

“Also recorded” adds a separate entry of the source.

On to `CO[C@H]1C[C@@H]2CC[C@@H](C)[C@@](O)(O2)C(=O)C(=O)N2CCCC[C@H]2C(=O)O[C@H]([C@H](C)C[C@@H]2CC[C@@H](O)[C@H](OC)C2)CC(=O)[C@H](C)/C=C(\C)[C@@H](O)[C@@H](OC)C(=O)[C@H](C)C[C@H](C)/C=C/C=C/C=C/1C` [Sirolimus], for which the solubility in water result is on record as “non-water soluble”.

On to `CC(=O)O[C@H]1C(=O)[C@@]2(C)[C@H]([C@H](OC(=O)c3ccccc3)[C@]3(O)C[C@H](OC(=O)[C@H](O)[C@@H](NC(=O)c4ccccc4)c4ccccc4)C(C)=C1C3(C)C)[C@]1(OC(C)=O)CO[C@@H]1C[C@@H]2O` [Taxol, paclitaxel], for which the solubility in water result is reported as “practically water insoluble”.

Regarding `O=CCCCC=O` [glutaraldehyde], in data set [1], the “cytotoxic at concentrations greater than” value was 10-25 ppm. Moreover, the “cytotoxic at concentrations as low as” value in data set [1] (in tissue culture) is given as 3 ppm. For the same molecule, the “crosslinking concentration giving a persistent foreign-body reaction” value in data set [2] is “above 0.05%”.

Turning to `CO[C@H]1C[C@@H]2CC[C@@H](C)[C@@](O)(O2)C(=O)C(=O)N2CCCC[C@H]2C(=O)O[C@H]([C@H](C)C[C@@H]2CC[C@@H](OCCO)[C@H](OC)C2)CC(=O)[C@H](C)/C=C(\C)[C@@H](O)[C@@H](OC)C(=O)[C@H](C)C[C@H](C)/C=C/C=C/C=C/1C` [Everolimus], the solubility in water result was “poorly soluble in water”. Moreover, in data set [3], the rate of thrombocytopenia is given as 17%. Also, the “reduction of neointimal proliferation” value in data set [4] is reported as 50%.

`COC(=O)C1=CO[C@@H](O)[C@@H]2C(CO)=CC[C@H]12` [genipin]: the “cytotoxicity compared with glutaraldehyde” value in data set [5] was “substantially less cytotoxic than glutaraldehyde; also recorded: significantly less cytotoxic than glutaraldehyde”. For the same molecule, the “clastogenic response (genotoxicity)” value in data set [6] is on record as “does not cause clastogenic response”. The LD50 in data set [7] was 382 mg/k.
